Results: ChEMBL document CHEMBL1141234, “Synthesis and SAR of highly potent dual 5-HT1A and 5-HT1B antagonists as potential antidepressant drugs” (Bioorg Med Chem Lett, 2005)
One block for each compound: values may come before it. The source made the active and inactive calls. The rule behind the calls is not given here.

How the values were obtained:
[1] = target: T1, 5-hydroxytryptamine receptor 2C (Homo sapiens, UniProt P28335); test: Inhibitory activity against 5HT2C receptor
T1 sequence (P28335 whole entry): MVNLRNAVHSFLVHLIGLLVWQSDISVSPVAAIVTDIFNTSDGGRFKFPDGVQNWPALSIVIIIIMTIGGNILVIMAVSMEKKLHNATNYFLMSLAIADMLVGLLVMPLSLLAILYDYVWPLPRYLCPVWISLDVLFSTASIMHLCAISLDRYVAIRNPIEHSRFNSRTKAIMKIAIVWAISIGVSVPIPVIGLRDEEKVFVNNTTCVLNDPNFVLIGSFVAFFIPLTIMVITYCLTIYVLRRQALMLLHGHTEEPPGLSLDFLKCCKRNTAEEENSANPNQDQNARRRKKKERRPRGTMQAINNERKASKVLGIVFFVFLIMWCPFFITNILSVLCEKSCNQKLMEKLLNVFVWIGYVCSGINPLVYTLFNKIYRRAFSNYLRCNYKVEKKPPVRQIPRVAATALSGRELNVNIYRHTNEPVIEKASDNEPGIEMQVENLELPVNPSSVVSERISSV

[2] = target: Sodium-dependent serotonin transporter (Homo sapiens) (UniProt P31645); test: Inhibitory activity against SERT upto 10 uM
Chain of Sodium-dependent serotonin transporter (Homo sapiens) (P31645 whole entry, looked up): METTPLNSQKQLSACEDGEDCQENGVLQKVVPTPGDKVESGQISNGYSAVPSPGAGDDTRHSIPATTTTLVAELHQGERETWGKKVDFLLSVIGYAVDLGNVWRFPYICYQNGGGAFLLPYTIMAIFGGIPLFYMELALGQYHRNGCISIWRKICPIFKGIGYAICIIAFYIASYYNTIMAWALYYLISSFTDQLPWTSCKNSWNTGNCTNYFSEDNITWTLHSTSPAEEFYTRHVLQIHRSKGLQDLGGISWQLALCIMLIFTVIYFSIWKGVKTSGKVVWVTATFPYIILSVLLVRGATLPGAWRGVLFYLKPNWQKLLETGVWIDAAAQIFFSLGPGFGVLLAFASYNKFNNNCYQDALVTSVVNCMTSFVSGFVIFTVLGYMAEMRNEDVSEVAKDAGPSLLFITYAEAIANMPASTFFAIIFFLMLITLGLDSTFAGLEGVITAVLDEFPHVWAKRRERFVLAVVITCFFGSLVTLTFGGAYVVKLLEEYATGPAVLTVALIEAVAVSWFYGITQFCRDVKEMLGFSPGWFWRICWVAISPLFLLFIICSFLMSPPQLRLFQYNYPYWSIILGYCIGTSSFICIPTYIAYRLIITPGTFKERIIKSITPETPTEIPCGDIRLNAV

[3] = target: T2, 5-hydroxytryptamine receptor 1A (Homo sapiens) (UniProt P08908); test: Intrinsic activity for 5HT1A receptor in [35S]GTP-gamma-S assay; type: functional
T2 sequence (whole entry): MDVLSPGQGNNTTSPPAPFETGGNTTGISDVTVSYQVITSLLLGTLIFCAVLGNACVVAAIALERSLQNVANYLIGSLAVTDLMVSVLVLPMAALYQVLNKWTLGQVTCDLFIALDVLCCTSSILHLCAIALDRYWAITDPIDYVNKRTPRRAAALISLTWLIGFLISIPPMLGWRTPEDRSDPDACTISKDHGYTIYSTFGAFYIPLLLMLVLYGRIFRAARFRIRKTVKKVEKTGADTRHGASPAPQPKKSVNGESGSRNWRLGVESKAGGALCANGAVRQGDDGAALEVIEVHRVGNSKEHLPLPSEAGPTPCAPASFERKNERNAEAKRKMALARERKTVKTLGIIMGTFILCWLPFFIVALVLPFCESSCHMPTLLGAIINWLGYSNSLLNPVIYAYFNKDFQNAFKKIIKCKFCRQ

[4] = target: T3, 5-hydroxytryptamine receptor 1A (Homo sapiens, UniProt P08908); test: Displacement of [35S]GTP-gamma-S from human recombinant 5HT1A receptor; type: functional
T3 sequence (P08908 whole entry): T2 sequence (whole entry)

[5] = target: T4, 5-hydroxytryptamine receptor 1B (Homo sapiens, UniProt P28222); test: Inhibitory activity against human recombinant 5HT1B receptor co-expressed with G-protein chimera Gqo5 in HEK293 cells by FLIPR; type: functional, cell-based
T4 sequence (P28222 whole entry): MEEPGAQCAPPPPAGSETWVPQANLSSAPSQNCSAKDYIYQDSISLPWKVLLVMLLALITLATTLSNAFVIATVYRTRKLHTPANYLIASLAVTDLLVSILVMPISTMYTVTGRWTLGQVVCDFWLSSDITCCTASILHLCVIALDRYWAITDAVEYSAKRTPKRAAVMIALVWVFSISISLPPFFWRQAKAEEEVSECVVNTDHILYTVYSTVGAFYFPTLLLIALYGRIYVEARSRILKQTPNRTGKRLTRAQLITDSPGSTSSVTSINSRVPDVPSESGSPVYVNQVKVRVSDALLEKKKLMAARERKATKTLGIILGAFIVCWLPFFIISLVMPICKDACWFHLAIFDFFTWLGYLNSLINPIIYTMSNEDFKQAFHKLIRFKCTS

[6] = target: T5, Adrenergic receptor alpha-1 (Homo sapiens, UniProt P35348+P25100+P35368); test: Inhibitory activity against Adrenergic alpha-1 receptor; type: protein assay
T5 sequence (P35348 whole entry): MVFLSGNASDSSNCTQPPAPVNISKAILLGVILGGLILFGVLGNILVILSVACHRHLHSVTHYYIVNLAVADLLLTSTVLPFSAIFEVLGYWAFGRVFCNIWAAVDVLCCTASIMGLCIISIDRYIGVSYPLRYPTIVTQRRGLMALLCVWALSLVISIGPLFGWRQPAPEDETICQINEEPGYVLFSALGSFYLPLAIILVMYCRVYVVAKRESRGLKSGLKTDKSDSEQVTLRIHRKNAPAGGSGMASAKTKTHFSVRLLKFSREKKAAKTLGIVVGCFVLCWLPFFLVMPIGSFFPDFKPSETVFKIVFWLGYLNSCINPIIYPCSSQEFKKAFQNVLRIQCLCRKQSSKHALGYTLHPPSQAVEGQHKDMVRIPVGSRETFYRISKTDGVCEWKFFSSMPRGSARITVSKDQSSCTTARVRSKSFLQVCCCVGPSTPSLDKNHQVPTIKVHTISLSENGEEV
T5 sequence (P25100 whole entry): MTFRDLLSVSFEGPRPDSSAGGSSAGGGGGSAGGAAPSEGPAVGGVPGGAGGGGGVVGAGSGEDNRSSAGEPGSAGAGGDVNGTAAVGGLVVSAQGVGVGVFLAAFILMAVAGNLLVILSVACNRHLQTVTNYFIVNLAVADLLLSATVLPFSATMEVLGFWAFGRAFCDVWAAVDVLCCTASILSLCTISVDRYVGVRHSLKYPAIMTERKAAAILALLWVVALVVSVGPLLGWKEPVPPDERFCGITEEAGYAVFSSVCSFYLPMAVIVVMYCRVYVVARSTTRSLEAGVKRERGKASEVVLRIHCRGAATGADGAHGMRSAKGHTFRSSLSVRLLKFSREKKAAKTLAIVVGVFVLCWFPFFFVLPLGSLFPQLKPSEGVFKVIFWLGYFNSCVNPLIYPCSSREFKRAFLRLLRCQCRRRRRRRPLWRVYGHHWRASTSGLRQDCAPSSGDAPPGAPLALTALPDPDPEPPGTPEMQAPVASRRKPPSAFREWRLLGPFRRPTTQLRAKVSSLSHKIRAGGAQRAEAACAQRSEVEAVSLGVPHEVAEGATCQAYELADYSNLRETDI
T5 sequence (P35368 whole entry): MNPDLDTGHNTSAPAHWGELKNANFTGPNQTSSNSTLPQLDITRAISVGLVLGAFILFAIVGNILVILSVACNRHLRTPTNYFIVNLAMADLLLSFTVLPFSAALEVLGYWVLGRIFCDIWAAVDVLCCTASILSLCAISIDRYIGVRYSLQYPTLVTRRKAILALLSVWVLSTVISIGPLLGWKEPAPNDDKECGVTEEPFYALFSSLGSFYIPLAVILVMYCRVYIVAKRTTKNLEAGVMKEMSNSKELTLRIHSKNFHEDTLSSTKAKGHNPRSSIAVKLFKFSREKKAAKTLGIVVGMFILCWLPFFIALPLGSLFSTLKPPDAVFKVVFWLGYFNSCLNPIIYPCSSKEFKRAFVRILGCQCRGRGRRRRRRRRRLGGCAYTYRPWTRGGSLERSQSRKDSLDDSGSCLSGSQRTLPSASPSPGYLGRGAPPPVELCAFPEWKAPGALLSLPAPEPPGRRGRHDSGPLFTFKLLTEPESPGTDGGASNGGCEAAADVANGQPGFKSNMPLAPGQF

[7] = target: 5-hydroxytryptamine receptor 5A (Homo sapiens, UniProt P47898); test: Inhibitory activity against 5HT5A receptor
Chain of 5-hydroxytryptamine receptor 5A (P47898 whole entry): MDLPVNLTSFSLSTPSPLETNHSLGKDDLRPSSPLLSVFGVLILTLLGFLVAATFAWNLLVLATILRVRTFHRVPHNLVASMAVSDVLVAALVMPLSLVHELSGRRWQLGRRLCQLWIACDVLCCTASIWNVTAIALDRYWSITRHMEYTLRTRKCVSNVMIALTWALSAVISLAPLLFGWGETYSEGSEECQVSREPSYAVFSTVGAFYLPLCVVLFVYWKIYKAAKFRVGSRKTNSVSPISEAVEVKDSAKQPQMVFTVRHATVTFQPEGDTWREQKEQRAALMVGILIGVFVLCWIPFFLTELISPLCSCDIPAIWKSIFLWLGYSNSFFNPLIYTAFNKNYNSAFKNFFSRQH

[8] = target: T4, 5-hydroxytryptamine receptor 1B; test: Functional activity in FLIPR assay for 5HT1B receptor
[9] = target: T4, 5-hydroxytryptamine receptor 1B; test: Intrinsic activity for 5HT1B receptor in FLIPR assay; type: functional
[10] = target: Sodium-dependent dopamine transporter (Homo sapiens) (UniProt Q01959); test: Inhibitory activity against DAT upto 10 uM
Chain of Sodium-dependent dopamine transporter (Homo sapiens) (Q01959 whole entry): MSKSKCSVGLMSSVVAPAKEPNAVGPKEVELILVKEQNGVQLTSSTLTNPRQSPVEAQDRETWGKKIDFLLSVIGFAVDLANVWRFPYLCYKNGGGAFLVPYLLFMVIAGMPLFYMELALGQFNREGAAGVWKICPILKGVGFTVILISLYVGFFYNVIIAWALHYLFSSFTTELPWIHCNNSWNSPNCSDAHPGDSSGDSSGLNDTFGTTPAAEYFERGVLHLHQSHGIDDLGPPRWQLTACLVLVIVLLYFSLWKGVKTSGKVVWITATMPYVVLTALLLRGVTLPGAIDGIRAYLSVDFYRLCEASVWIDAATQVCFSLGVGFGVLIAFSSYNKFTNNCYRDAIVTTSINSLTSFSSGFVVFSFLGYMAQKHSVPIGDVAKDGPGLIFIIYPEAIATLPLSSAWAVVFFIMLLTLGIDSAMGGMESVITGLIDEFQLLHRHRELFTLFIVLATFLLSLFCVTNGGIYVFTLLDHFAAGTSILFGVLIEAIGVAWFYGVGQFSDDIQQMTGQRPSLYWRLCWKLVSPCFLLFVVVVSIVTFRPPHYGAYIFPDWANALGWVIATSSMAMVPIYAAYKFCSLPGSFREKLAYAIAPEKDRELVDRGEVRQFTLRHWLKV

[11] = target: Sodium-dependent noradrenaline transporter (Homo sapiens) (UniProt P23975); test: Inhibitory activity against NET upto 10 uM
Chain of Sodium-dependent noradrenaline transporter (Homo sapiens) (P23975 whole entry): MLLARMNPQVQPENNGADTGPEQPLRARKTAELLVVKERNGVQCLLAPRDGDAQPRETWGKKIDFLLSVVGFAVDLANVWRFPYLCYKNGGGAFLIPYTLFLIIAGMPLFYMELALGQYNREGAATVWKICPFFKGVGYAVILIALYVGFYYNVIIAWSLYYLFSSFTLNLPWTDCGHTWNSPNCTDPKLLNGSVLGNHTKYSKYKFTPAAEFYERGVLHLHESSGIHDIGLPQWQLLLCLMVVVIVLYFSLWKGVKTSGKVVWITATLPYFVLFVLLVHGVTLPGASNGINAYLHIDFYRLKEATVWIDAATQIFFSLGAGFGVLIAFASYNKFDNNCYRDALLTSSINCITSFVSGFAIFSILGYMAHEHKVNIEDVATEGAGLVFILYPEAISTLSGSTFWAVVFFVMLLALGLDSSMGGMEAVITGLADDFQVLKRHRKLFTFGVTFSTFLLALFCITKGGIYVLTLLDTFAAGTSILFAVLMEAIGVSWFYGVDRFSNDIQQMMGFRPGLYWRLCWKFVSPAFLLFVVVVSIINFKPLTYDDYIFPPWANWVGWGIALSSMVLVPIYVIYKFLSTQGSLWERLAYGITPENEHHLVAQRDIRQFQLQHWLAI

D(3) dopamine receptor = D(3) dopamine receptor (Homo sapiens, UniProt P35462); test: Inhibitory activity against dopamine D3 receptor
Chain of D(3) dopamine receptor (P35462 whole entry): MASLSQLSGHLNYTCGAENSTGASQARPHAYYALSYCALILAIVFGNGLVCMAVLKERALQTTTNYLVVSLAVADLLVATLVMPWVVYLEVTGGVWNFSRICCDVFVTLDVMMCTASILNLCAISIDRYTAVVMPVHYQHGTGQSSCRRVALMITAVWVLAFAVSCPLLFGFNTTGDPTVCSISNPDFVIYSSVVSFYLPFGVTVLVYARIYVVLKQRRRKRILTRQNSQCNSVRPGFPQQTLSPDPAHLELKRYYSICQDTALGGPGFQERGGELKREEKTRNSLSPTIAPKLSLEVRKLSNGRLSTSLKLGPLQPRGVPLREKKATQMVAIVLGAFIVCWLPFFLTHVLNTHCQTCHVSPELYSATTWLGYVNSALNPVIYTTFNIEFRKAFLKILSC

[12] = target: 5-hydroxytryptamine receptor 7 (Homo sapiens, UniProt P34969); test: Inhibitory activity against 5HT7 receptor
Chain of 5-hydroxytryptamine receptor 7 (P34969 whole entry): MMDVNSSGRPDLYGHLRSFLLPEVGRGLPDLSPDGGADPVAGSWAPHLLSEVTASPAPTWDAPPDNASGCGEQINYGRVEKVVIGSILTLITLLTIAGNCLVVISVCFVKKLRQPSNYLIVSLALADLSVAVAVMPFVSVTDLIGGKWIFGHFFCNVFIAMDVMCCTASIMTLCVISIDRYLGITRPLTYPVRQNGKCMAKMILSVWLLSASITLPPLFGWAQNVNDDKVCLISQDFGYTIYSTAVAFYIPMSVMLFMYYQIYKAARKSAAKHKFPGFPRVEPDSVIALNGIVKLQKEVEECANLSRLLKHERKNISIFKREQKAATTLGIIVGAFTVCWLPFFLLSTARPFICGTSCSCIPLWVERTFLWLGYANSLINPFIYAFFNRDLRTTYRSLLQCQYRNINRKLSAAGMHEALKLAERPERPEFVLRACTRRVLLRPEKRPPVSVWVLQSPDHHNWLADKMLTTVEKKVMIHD

[13] = target: T6, 5-hydroxytryptamine receptor 1A (Rattus norvegicus, UniProt P19327); test: Binding affinity for rat 5HT1A receptor
T6 sequence (P19327 whole entry): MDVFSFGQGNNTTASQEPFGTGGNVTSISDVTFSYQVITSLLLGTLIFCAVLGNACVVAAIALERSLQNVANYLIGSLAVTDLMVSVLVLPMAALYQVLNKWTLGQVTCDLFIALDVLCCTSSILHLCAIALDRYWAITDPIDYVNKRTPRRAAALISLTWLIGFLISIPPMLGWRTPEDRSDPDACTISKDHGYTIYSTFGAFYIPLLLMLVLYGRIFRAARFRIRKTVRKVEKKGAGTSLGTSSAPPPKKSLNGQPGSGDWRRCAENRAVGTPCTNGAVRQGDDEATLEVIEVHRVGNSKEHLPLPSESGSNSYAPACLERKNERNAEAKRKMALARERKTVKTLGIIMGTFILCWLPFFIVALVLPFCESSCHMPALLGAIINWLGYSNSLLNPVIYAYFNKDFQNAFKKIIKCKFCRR

[14] = target: 5-hydroxytryptamine receptor 1B (Rattus norvegicus, UniProt P28564); test: Binding affinity for rat 5HT1B receptor
Chain of 5-hydroxytryptamine receptor 1B (Rattus norvegicus, UniProt P28564) (P28564 whole entry): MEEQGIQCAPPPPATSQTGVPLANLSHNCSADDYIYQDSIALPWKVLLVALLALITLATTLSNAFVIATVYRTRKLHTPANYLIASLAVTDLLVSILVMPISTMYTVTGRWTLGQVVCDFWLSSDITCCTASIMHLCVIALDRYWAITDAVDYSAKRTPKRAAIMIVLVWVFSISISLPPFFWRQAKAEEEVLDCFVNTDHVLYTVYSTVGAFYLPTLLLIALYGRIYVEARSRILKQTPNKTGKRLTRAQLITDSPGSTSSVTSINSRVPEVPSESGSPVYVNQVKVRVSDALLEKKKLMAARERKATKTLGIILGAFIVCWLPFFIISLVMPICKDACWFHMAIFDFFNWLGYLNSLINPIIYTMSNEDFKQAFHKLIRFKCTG

[15] = target: T2, 5-hydroxytryptamine receptor 1A (Homo sapiens); test: Functional activity in [35S]GTP-gamma-S assay for 5HT1A receptor

Compound: CN1CCc2c(sc3ncn(CCN4CCN(c5ccnc6ccccc56)CC4)c(=O)c23)C1
- Ki [1]: 5500 nM
- Activity [2]: inactive
- Emax [3]: 6%
- IC50 [4]: 1300 nM
- Ki [4]: 6.5 nM
- IC50 [5]: 85 nM
- Ki [5]: 9.7 nM
- Ki [6]: 118.1 nM
- Ki [7]: > 1000 nM
- Activity ([8]; filed as antagonist): Antagonist
- Emax [9]: 9%
- Activity [10]: inactive
- Activity [11]: inactive
- Ki (D(3) dopamine receptor): 1.3 nM
- Ki [12]: 4480 nM
- Ki [13]: 23 nM
- Ki [14]: 117 nM
- Activity ([15]; filed as antagonist): Antagonist

Compound: CN1CCc2c(sc3ncn(CCN4CCN(c5ccccc5Oc5ccccc5)CC4)c(=O)c23)C1
- Emax [3]: 10%
- Ki [4]: 0.9 nM
- Ki [5]: 1.1 nM
- Ki [6]: 0.5 nM
- Activity ([8]; filed as partial agonist): Partial agonist
- Emax [9]: 20%
- Activity ([15]; filed as partial agonist): Partial agonist

Continued by falling Ki [4], values first:

- Emax [3]: 10%
- Ki [4]: 5.6 nM
- Ki [5]: 11.9 nM
- Ki [6]: 12.1 nM
- Activity ([8]; filed as antagonist): Antagonist
- Emax [9]: < 20%
- Activity ([15]; filed as partial agonist): Partial agonist
Compound: COc1ccc(C)cc1N1CCN(CCn2cnc3sc4c(c3c2=O)CCN(C)C4)CC1

- Emax [3]: 10%
- Ki [4]: 4.1 nM
- Ki [5]: 1.1 nM
- Ki [6]: 1.1 nM
- Activity ([8]; filed as antagonist): Antagonist
- Emax [9]: < 20%
- Activity ([15]; filed as partial agonist): Partial agonist
Compound: CN1CCc2c(sc3ncn(CCN4CCN(c5ccccc5-c5ccccc5)CC4)c(=O)c23)C1

- Emax [3]: 10%
- Ki [4]: 2.8 nM
- Ki [5]: 1.7 nM
- Ki [6]: 1 nM
- Activity ([8]; filed as partial agonist): Partial agonist
- Emax [9]: 20%
- Activity ([15]; filed as partial agonist): Partial agonist
Compound: CN1CCc2c(sc3ncn(CCN4CCN(c5ccccc5Cl)CC4)c(=O)c23)C1
